The source of these data is US9611262B2, “Substituted 2-azabicycles and their use as orexin receptor modulators” (JANSSEN PHARMACEUTICA NV, priority 2014, dated 2017).

One assay has as its target rat orexin 1 receptor (Rattus norvegicus, UniProt P56718). Kind of assay: Rat orexin 1 receptor radioligand binding (competitive). The settings on record: HEK293 cells stably expressing rat orexin 1 receptor; 4 nM radioligand; averages of 2-20 runs; read-out: rOX1 Ki. Summed up: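 Competition binding used HEK293 cells expressing rat OX1 or CHO cells expressing human OX1, with 4 nM final [3H]-labelled thiazolyl-oxadiazolyl-pyrrolidinyl methanone radioligand in PBS. Compounds were tested at 7 concentrations (0.1 nM–10 μM) for 60 min at room temperature, then filtered; 10 μM almorexant defined nonspecific binding. Ki was derived from the one-site IC50 and the radioligand Kd.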

The target of a further assay is human orexin 1 receptor (Homo sapiens (Human), UniProt O43613). As to the kind of experiment: Human orexin 1 receptor radioligand binding (competitive). The settings on record: CHO cells stably expressing human orexin 1 receptor; 4 nM radioligand; averages of 2-20 runs; read-out: hOX1 Ki. As for the experimental part:
The in vitro affinity of the compounds of the invention for the rat/human orexin 1 and human orexin 2 receptors was determined by competitive radioligand binding using [^3H](1-(5-(2-fluoro-phenyl)-2-methyl-thiazol-4-yl)-1-((S)-2-(5-phenyl-(1,3,4)oxadiazol-2-ylmethyl)-pyrrolidin-1-yl)-methanone) (Langmead et al., 2004) and [^3H]EMPA (n-ethyl-2[96-methoxy-pyridin-3-yl)-(toluene-2-sulfonyl)-amino]-N-pyridin-3-ylmethyl acetamide), respectively (Langmead et al., 2004, British Journal of Pharmacology 141:340-346; Malherbe et al., 2004, British Journal of Pharmacology 156:1326-41).
Data are analyzed using pc-Sandy macro and graphed on Graphpad Prism 5. For analysis, each concentration point is averaged from triplicate values and the averaged values are plotted on Graphpad Prism. The IC50 was determined by applying the following equation (GraphPad Prism 5.0, San Diego) for one site competition where X=log (concentration) and Y=specific binding. Top denotes the total [^3H]— (1-(5-(2-fluoro-phenyl)-2-methyl-thiazol-4-yl)-1-((S)-2-(5-phenyl-(1,3,4)oxadiazol-2-ylmethyl)-pyrrolidin-1-yl)-methanone) binding, bottom denotes the nonspecific [^3H]— (1-(5-(2-fluoro-phenyl)-2-methyl-thiazol-4-yl)-1-((S)-2-(5-phenyl-(1,3,4)oxadiazol-2-ylmethyl)-pyrrolidin-1-yl)-methanone) binding. Graphpad Prism calculates Ki value from IC50 and the pre-determined Kd values for [^3H]— (1-(5-(2-fluoro-phenyl)-2-methyl-thiazol-4-yl)-1-((S)-2-(5-phenyl-(1,3,4)oxadiazol-2-ylmethyl)-pyrrolidin-1-yl)-methanone) and [^3H]-EMPA. The Ki for each compound is then uploaded into 3DX. Each run comprises individual compounds in triplicate. The data in Table 1 and Table 2 represent averages from between 2-20 runs
Rat and Human Orexin 1 Receptor Radioligand Binding Studies
Human Embryonic Kidney 293 cells (HEK293) stably expressing rat orexin 1 receptor (Genebank accession number NM_001525) or Chinese ovary cells (CHO) stably expressing human orexin 1 receptor (Genebank accession number […]) were grown to confluency in DMEM (Hyclone, cat # SH30022), 10% FBS, 1× Pen/Strep, 1× sodium pyruvate, 10 mM HEPES, 600 μg/mL G418 and DMEM/F12 (Gibco, Cat #11039), 10% FBS, 1× Pen/Strep, 600 μg/mL G418 media, respectively on 150 cm^2 tissue culture plates, washed with 5 mM EDTA in PBS (HyClone Dulbecco's Phosphate Buffered Saline 1× with Calcium and Magnesium, Cat # SH30264.01, hereafter referred to simply as PBS) and scraped into 50 ml tubes. After centrifugation (2K×G, 5 min at 4° C.), the supernatant was aspirated and the pellets frozen and stored at −80° C. Cells were resuspended in PBS in the presence of 1 tablet of protease inhibitor cocktail (Roche, Cat. #11836145001) per 50 mL. […] Competition binding experiments in 96 well polypropylene plates were performed using [^3H]— (1-(5-(2-fluoro-phenyl)-2-methyl-thiazol-4-yl)-1-((S)-2-(5-phenyl-(1,3,4)oxadiazol-2-ylmethyl)-pyrrolidin-1-yl)-methanone) (Moraveck Corporation, specific activity=35.3 Ci/mmol), diluted to a 10 nM concentration in PBS (4 nM final). Compounds were solubilized in 100% DMSO (Acros Organics, Cat. #61042-1000) and tested over a range of 7 concentrations (from 0.1 nM to 10 μM). The final concentration of DMSO in the reactions is equal to or less than 0.1%. Total and nonspecific binding was determined in the absence and presence of 10 μM almorexant. The total volume of each reaction is 200 μL (20 μL of diluted compounds, 80 μL of [^3H]— (1-(5-(2-fluoro-phenyl)-2-methyl-thiazol-4-yl)-1-((S)-2-(5-phenyl-(1,3,4)oxadiazol-2-ylmethyl)-pyrrolidin-1-yl)-methanone) diluted in PBS and 100 μL of the cell suspension). Reactions were run for 60 min at room temperature and terminated by filtration through GF/C filter plates (PerkinElmer, Cat. #6005174) presoaked in 0.3% polyethylenimine using the cell harvester (PerkinElmer Filtermate). The plates were washed 3 times by aspirating 30 ml PBS through the plates. Plates were dried in 55° C. oven for 60 min, scintillation fluid was added, and the radioactivity was counted on a Topcount (Packard). […]

Another assay has as its target human orexin 2 receptor (Homo sapiens (Human), UniProt O43614). Kind of assay: Human orexin 2 receptor radioligand binding ([3H]-EMPA competition). The settings on record: HEK293 stably expressing human orexin 2 receptor; 2 nM [3H]-EMPA; averages of 2-20 runs; read-out: hOX2 Ki. Summed up:
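Membranes-free whole HEK293 cells stably expressing human OX2 receptor incubated with [3H]-EMPA and compound (7 concentrations, 0.1 nM–10 μM, ≤0.1% DMSO) for 60 min at room temperature; nonspecific binding with 10 μM almorexant. Filtration and scintillation counting; one-site IC50 converted to Ki using predetermined Kd, triplicates averaged over 2-20 runs.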

Molecules are shown by their SMILES. pKi: −log10 of the molar value.

As usually defined, the pKi is the negative decadic logarithm of the Ki, by convention in mol/L.

Chain of human orexin 1 receptor (O43613 whole entry): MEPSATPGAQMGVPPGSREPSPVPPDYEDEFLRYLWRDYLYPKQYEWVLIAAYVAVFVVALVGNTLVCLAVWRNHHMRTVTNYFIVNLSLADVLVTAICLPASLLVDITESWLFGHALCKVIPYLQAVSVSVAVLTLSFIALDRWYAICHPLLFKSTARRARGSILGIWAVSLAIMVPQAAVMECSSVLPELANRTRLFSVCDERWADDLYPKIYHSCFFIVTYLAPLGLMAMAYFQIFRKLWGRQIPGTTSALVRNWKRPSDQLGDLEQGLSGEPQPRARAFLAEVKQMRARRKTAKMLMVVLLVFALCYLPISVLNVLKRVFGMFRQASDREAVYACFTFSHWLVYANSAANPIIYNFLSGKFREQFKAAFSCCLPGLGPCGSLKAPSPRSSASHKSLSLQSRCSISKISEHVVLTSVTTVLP
Chain of human orexin 2 receptor (O43614 whole entry): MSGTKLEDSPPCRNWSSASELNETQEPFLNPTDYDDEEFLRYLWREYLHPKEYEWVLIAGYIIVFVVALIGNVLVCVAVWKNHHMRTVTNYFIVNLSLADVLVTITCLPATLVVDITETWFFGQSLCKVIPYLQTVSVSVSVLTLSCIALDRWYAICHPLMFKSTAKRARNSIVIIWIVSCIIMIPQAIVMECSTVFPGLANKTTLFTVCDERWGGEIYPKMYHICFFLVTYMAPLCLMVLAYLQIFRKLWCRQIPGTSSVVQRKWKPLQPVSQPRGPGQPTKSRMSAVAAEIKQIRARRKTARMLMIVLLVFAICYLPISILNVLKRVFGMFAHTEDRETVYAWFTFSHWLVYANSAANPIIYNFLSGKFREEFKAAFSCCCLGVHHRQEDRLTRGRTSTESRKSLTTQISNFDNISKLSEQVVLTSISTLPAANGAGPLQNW

For the compound `CC1C2CC(Oc3ccc(C(F)(F)F)cn3)C(C2)N1C(=O)c1cccc(F)c1-c1ncccn1` (single isomer, unassigned) [Example 1, (R/S)-(3-fluoro-2-(pyrimidin-2-yl)phenyl)(3-methyl-6-((5-(trifluoromethyl)pyridin-2-yl)oxy)-2-azabicyclo[2.2.1]heptan-2-yl)methanone], the pKi at rat orexin 1 receptor is 7.62; on human orexin 1 receptor, 7.08; at human orexin 2 receptor, 5.28.
The like results for `[2H]C1([2H])[C@H]2C[C@@H]([C@@H]1Oc1ccc(Cl)cn1)N(C(=O)c1cccc(F)c1-n1nccn1)[C@@H]2C` [Example 197, [(1R,3R,4S,6R)-3-[(5-chloro-2-pyridyl)oxy]-2,2-dideuterio-6-methyl-5-azabicyclo[2.2.1]heptan-5-yl]-[3-fluoro-2-(triazol-2-yl)phenyl]methanone] were, in that order, 8.40, 8.52 and 6.32.
The like results for `Cc1ccc(C(=O)N2[C@H](C)[C@H]3C[C@@H](Oc4ccc(Cl)cn4)[C@@H]2C3)c(-n2nccn2)n1` [Example 193, [(1R,2R,4S,5R)-5-[(5-chloro-2-pyridyl)oxy]-2-methyl-3-azabicyclo[2.2.1]heptan-3-yl]-[6-methyl-2-(triazol-2-yl)-3-pyridyl]methanone] were, in that order, 8.10, 8.10 and 5.33.
The matching figures for `Cc1cnc(-n2nccn2)c(C(=O)N2[C@H](C)[C@H]3C[C@@H](Oc4ccc(Cl)cn4)[C@@H]2C3)c1` [Example 194, [(1R,2R,4S,5R)-5-[(5-chloro-2-pyridyl)oxy]-2-methyl-3-azabicyclo[2.2.1]heptan-3-yl]-[5-methyl-2-(triazol-2-yl)-3-pyridyl]methanone]: 8.30, 8.30 and 5.54.
In the case of `C[C@@H]1[C@H]2C[C@@H](Oc3ccc(C(F)(F)F)cn3)[C@H](C2)N1C(=O)c1cccc(F)c1-n1nccn1` (relative stereo) [Example 27, (3-fluoro-2-(2H-1,2,3-triazol-2-yl)phenyl)((1S*,3R*,4R*,6R*)-3-methyl-6-((5-(trifluoromethyl)pyridin-2-yl)oxy)-2-azabicyclo[2.2.1]heptan-2-yl)methanone], the pKi on rat orexin 1 receptor was 8.30; on human orexin 1 receptor it was 8.10; at human orexin 2 receptor it was 6.23.
The like results for `C[C@@H]1[C@H]2C[C@@H](Oc3ccc(C(F)(F)F)cn3)[C@H](C2)N1C(=O)c1ccccc1-c1ccnc(F)c1` [Example 172, [2-(2-fluoro-4-pyridyl)phenyl]-[(1R,2R,4S,5R)-2-methyl-5-[[5-(trifluoromethyl)-2-pyridyl]oxy]-3-azabicyclo[2.2.1]heptan-3-yl]methanone] were, in that order, 7.18, 7.17 and less than 5.00.
The like results for `CCC1C2CC(Oc3ccc(C(F)(F)F)cn3)C(C2)N1C(=O)c1ncc(C)cc1-n1nccn1` (racemic) [Example 216, (R/S)-[2-ethyl-5-[[5-(trifluoromethyl)-2-pyridyl]oxy]-3-azabicyclo[2.2.1]heptan-3-yl]-[5-methyl-3-(triazol-2-yl)-2-pyridyl]methanone] were, in that order, 7.96, 7.96 and 5.82.
The like results for `Cc1ccc(-n2nccn2)c(C(=O)N2[C@H](CF)[C@@H]3CC[C@H]2[C@H](Oc2ccc(C(F)(F)F)cn2)C3)n1` [Example 77, ((1S,3S,4R,6R)-3-(fluoromethyl)-6-((5-(trifluoromethyl)pyridin-2-yl)oxy)-2-azabicyclo[2.2.2]octan-2-yl)(6-methyl-3-(2H-1,2,3-triazol-2-yl)pyridin-2-yl)methanone] were, in that order, 7.89, 7.70 and 5.32.
Take `Cc1ccc(-c2ncccn2)c(C(=O)N2[C@H](CF)[C@@H]3CC[C@H]2[C@H](Oc2ccc(C(F)(F)F)cn2)C3)n1` [Example 74, ((1S,3S,4R,6R)-3-(fluoromethyl)-6-((5-(trifluoromethyl)pyridin-2-yl)oxy)-2-azabicyclo[2.2.2]octan-2-yl)(6-methyl-3-(pyrimidin-2-yl)pyridin-2-yl)methanone]: the pKi is 7.32 at rat orexin 1 receptor, 7.46 at human orexin 1 receptor and 5.42 at human orexin 2 receptor.
The like results for `C[C@@H]1[C@H]2C[C@@H](Oc3ccc(C(F)(F)F)cn3)[C@H](C2)N1C(=O)c1ncccc1-c1ncccn1` (relative stereo) [Example 32, ((1S*,3R*,4R*,6R*)-3-methyl-6-((5-(trifluoromethyl)pyridin-2-yl)oxy)-2-azabicyclo[2.2.1]heptan-2-yl)(3-(pyrimidin-2-yl)pyridin-2-yl)methanone] were, in that order, 8.22, 8.10 and 5.72.
The like results for `C[C@@H]1[C@@H]2CC[C@@H]([C@H](Oc3ccc(C(F)(F)F)cn3)C2)N1C(=O)c1cccc(F)c1-c1ncccn1` [Example 148, (3-fluoro-2-pyrimidin-2-yl-phenyl)-[(1R,2R,4S,5R)-2-methyl-5-[[5-(trifluoromethyl)-2-pyridyl]oxy]-3-azabicyclo[2.2.2]octan-3-yl]methanone] were, in that order, 7.92, 7.85 and 5.62.
The like results for `C[C@@H]1[C@H]2C[C@@H](Oc3cnc4cc(F)ccc4n3)[C@H](C2)N1C(=O)c1ccccc1-n1nccn1` (relative stereo) [Example 188, (2-(2H-1,2,3-triazol-2-yl)phenyl)((1S*,3R*,4R*,6R*)-6-((6-fluoroquinoxalin-2-yl)oxy)-3-methyl-2-azabicyclo[2.2.1]heptan-2-yl)methanone] were, in that order, 8.22, 8.15 and 6.97.
As to `O=C(c1cc(F)ccc1-c1ncccn1)N1[C@H](CF)[C@@H]2CC[C@H]1[C@H](Oc1ccc(C(F)(F)F)cn1)C2` [Example 76, (5-fluoro-2-(pyrimidin-2-yl)phenyl)((1S,3S,4R,6R)-3-(fluoromethyl)-6-((5-(trifluoromethyl)pyridin-2-yl)oxy)-2-azabicyclo[2.2.2]octan-2-yl)methanone], the pKi on rat orexin 1 receptor is 7.44; at human orexin 1 receptor, 7.34; at human orexin 2 receptor it was less than 5.00.
